Results: US20160113931A1, “Method of treating and/or preventing neurodegenerative diseases” (University of Macau, priority 2014, published 2016)
“Also recorded” adds a separate entry of the source.

Key:
[1] = system: zebrafish; experiment: MPTP-induced dopaminergic neuron loss in zebrafish (TH whole-mount immunostaining); assay type: in vivo, Danio rerio; conditions: for TH+ density, percentage of the control group: 360 μM MPTP 48 h, 1 dpf zebrafish
Experimental: Zebrafish at 1 dpf were exposed to BHDPC (3, 10, 30 μM) with or without MPTP for 48 h. Then fish were fixed for whole mount immunostaining. The morphology change of dopaminergic neurons in zebrafish brain was indicated by immunostaining with antibody against tyrosine hydroxylase (TH). Statistical analysis of TH density was accessed in each 10 fish/group. […] Zebrafish at 1 dpf were exposed to different concentrations of BHDPC with or without MPTP for 48 h. Then fish were fixed for whole mount immunostaining.
The AB strain of wild type zebrafish (Danio rerio) was maintained as described in the Zebrafish Handbook. Zebrafish were staged by days post fertilization […]. For breeding, groups of male and female (3:2) adult zebrafish were placed in 10-L plastic aquarium equipped with spawning nets in the evening. In the following morning, eggs were collected from the breeding group tanks. Normally developed fertilized eggs were selected under a stereomicroscope for further studies. The MPTP manipulation was performed with appropriate safety precautions and all MPTP-containing water was bleached.
Whole-mount immunostaining in zebrafish was performed as previously described. 3 dpf Zebrafish larvae were fixed with 4% paraformaldehyde in PBS for 30 min, […] (TH) staining was performed as previously described. Briefly, zebrafish were fixed in 4% paraformaldehyde in PBS for 5 h. Fixed samples were blocked (2% lamb serum and 0.1% BSA in PBST) for 1 h at room temperature. A mouse monoclonal anti-tyrosine hydroxylase (TH) antibody (Millipore, Billerica, MD, USA) was used as the primary antibody and incubated with samples overnight at 4° C. On the next day, samples were washed six times with PBST (each wash lasted 30 min), followed by incubation with Alexa Fluor® 488 goat anti-mouse antibodies. After immunostaining, zebrafish were mounted with 3.5% methylcellulose and photographed. Semi-quantification of the area of TH^+ cells was assessed by an investigator, unaware of the drug treatment, using Image-J software. Results are expressed as percentage of area of TH^+ cells in untreated normal control groups.
In this example, the in vivo animal model was used to determine the neuroprotective effect of BHDPC. Anti-tyrosine hydroxylase (TH) whole mount immunostaining was used to determine dopaminergic neuronal populations in zebrafish larvae (FIG. 15A). TH activity is the key enzyme responsible for dopamine biosynthesis in the CNS. […] The dopamine reuptake inhibitor nomifensine (Nom), which protected against MPTP-induced neurotoxicity in vivo was used as a positive control. The treatment of larvae with 30 μM of nomifensine, a positive control drug attenuated MPTP-induced neurotoxicity, with TH^+ density […] by 30% compared to the MPTP group.
L-deprenyl, which is a substituted phenethylamine used in treatment of early Parkinson's disease, was used as a positive control.

[2] = system: cerebellar granule neurons (CGNs); experiment: MPP+-induced neurotoxicity in primary cerebellar granule neurons (MTT assay); assay type: cell-based, mice; conditions: 10 and 30 μM, 2 h pre-treatment, 40 μM MPP+ 24 h
Experimental: Cerebellar tissue slice were treated with 30 μM BHDPC with or without MPP^+ for 72 h and then were stained with PI.
(§1) The percentage of surviving cells was estimated by determining the activity of mitochondrial dehydrogenases with 3(4,5-dimethylthiazol-2-yl)-2,5-diphenyltetrazolium bromide (MTT) assay. After drug treatment, cells were incubated at 37° C. for 4 h in 0.5 mg/mL MTT solution. The medium was then removed, and 100 μL of DMSO was added to each well to dissolve the violet formazan crystals. The absorbance of the samples was measured at a wavelength of 570 nm with 655 nm as a reference wavelength. All values were normalized to the control groups.
Rat CGNs were prepared from 8-day-old Sprague-Dawley rats (The Animal Care Facility, The Hong Kong Polytechnic University) as described in our previous publication. Briefly, neurons were seeded at a density of 2.7×10^5 cells/ml in basal modified Eagle's medium (Invitrogen) containing 10% fetal bovine serum, 25 mM KCl, 2 mM glutamine, and penicillin (100 units/ml)/streptomycin (100 μg/ml). […]
To further confirm the effect of BHDPC on primary neurons, mice cerebellar granule neurons were treated with BHDPC at the indicated concentrations for 2 hours and then exposed to 40 μM MPP^+. Cell viability was measured by the MTT assay at 24 hours after the MPP^+ challenge.

[3] = system: SH-SY5Y cells; experiment: MPP+-induced cytotoxicity in SH-SY5Y cells (MTT assay); assay type: cell-based, human; conditions: 30 μM, 2 h pre-treatment, 1 mM MPP+ 24 h
Experimental: Cells were pre-treated with BHDPC (3, 10 and 30 μM) for 2 h and then incubated with or without 1 mM MPP^+ for further 24 h. Cell viability was measured by the MTT assay.
The human neuroblastoma SH-SY5Y cells were purchased from America Tissue Type Collection. The cells were maintained in DMEM medium supplemented with 10% fetal bovine serum and penicillin/streptomycin (100 U/mL; 100 μg/mL) in a 37° C., 5% CO2 incubator. All experiments were carried out 48 hours after the cells were seeded.
as §1
To test the neuroprotective effects of BHDPC, SH-SY5Y cells were pre-treated with gradually increasing concentrations of BHDPC for 2 h and then treated with 1 mM MPP^+ for 24 hours. Cell viability was measured using the MTT assay.

COc1cc(C2C(C(=O)OCc3ccccc3)=C(C)Nc3nnnn32)ccc1O (stereo not shown) [BHDPC, benzyl 7-(4-hydroxy-3-methoxyphenyl)-5-methyl-4,7-dihydrotetrazolo[1,5-a]pyrimidine-6-carboxylate]
TH+ density, percentage of the control group ([1]; 3 μM): 66% | TH+ density, percentage of the control group ([1]; 10 μM): 74% | TH+ density, percentage of the control group ([1]; 30 μM): 90% | MPTP-induced TH+ density decrease (FIG. 15B) ([1]; 3 and 10 μM, MPTP 48 h, dose-dependent): rescue dramatically; also recorded: protected against MPTP-induced DA neuron loss | toxicity in the vital organs ([1]; BHDPC treated zebrafish compared to control groups): No toxicity was observed | MPP+-induced neuronal death (cell viability, MTT) [2]: reduced MPP^+-induced dopaminergic neuronal death; also recorded: prevented MPP^+-induced neuronal death | MPP+-induced neuronal death (cell viability, MTT) [3]: prevented MPP^+-induced dopaminergic neuronal death
